The results in this text go back to patent US8778966B2, “Quinolinone derivatives as PARP and tank inhibitors” (Janssen Pharmaceutica, NV, priority 2007, dated 2014).

The target of one data set is T1, Human PARP-1 enzyme (Homo sapiens, UniProt P09874).
T1 construct: purchased Trevigen
Put plainly: In vitro Scintillation Proximity Assay (SPA) for PARP-1 inhibitory activity. It is filed as biochemical. The settings on record: read-out: in vitro SPA assay PARP-1 pIC50 (converted). The method, then:
Compounds of the present invention were tested in an in vitro assay based on SPA technology (proprietary to GE healthcare).
In principle, the assay relies upon the well established SPA technology for the detection of poly(ADP-ribosyl)ation of biotinylated target proteins, i.e histones. This ribosylation is induced using nicked DNA activated PARP-1 enzyme and [^3H]-nicotinamide adenine dinucleotide ([^3H]-NAD^+) as ADP-ribosyl donor.
Histones (type II-A, supplier: Sigma) were biotinylated using the biotinylation kit of Amersham and stored aliquoted at −20° C. A stock solution of 100 mg/ml SPA poly(vinyl toluene) (PVT) beads (supplier: Amersham) was made in PBS. A stock solution of 61.6 nM [^3H]-NAD^+ was made by adding [^3H]-NAD^+ (0.1 mCi/ml, supplier: Perkin Elmer) to incubation buffer (50 mM Tris/HCl, pH 8; 0.2 mM DTT; 4 mM MgCl2). A solution of 4 mM NAD^+ (supplier: Sigma) was made. Human PARP-1 enzyme was obtained from Trevigen. Biotinylated histones and PVT-SPA beads were mixed and pre-incubated for 30 min. at room temperature. PARP-1 enzyme (concentration was lot dependent) was mixed with the nicked DNA and the mixture was pre-incubated for 30 min. at 4° C. Equal parts of this histones/PVT-SPA beads solution and PARP-1 enzyme/DNA solution were mixed and 75 μl of this mixture together with 1 μl of compound in DMSO and 25 μl of [^3H]-NAD^+ was added per well into a 96-well microtiterplate. The final concentrations in the incubation mixture were 2 μg/ml for the biotinylated histones, 2 mg/ml for the PVT-SPA beads, 0.25 μg/ml for the nicked DNA and between 0.1-0.2 μg/ml for the PARP-1 enzyme. After incubation of the mixture for 20 min. at room temperature, the reaction was terminated by adding 100 μl of 4 mM NAD^+ in water (final concentration 2 mM) and plates were mixed. The beads were sedimented by centrifugation (10 min, 800 rpm). and plates transferred to a TopCountNXT™ (Packard) for scintillation counting, values were expressed as counts per minute (cpm). For each experiment, controls (containing PARP-1 enzyme and DMSO without compound), a blank incubation (containing DMSO but no PARP-1 enzyme, no DNA or compound) and samples (containing PARP-1 enzyme, DNA and compound dissolved in DMSO) were run in parallel. All compounds tested were dissolved and eventually further diluted in DMSO. A dose-response curve was made wherein the compounds were tested at concentrations between 10^−5M and 3×10^−9M. In each test, the blank value was subtracted from both the control and the sample values. The control sample represented maximal PARP-1 enzyme activity. For each sample, the amount of cpm was expressed as a percentage of the mean cpm value of the controls. When appropriate, IC50-values (concentration of the drug, needed to reduce the PARP-1 enzyme activity to 50% of the control) were computed using linear interpolation between the experimental points just above and below the 50% level. Herein the effects of test compounds are expressed as pIC50 (the negative log value of the IC50-value). As a reference compound, 4-amino-1,8-naphthalimide was included to validate the SPA assay.

For a further data set, the target named is T2, TANK-2 enzyme (Homo sapiens, UniProt Q9H2K2).
T2 construct: made in house
T2 sequence (Q9H2K2 1-1166): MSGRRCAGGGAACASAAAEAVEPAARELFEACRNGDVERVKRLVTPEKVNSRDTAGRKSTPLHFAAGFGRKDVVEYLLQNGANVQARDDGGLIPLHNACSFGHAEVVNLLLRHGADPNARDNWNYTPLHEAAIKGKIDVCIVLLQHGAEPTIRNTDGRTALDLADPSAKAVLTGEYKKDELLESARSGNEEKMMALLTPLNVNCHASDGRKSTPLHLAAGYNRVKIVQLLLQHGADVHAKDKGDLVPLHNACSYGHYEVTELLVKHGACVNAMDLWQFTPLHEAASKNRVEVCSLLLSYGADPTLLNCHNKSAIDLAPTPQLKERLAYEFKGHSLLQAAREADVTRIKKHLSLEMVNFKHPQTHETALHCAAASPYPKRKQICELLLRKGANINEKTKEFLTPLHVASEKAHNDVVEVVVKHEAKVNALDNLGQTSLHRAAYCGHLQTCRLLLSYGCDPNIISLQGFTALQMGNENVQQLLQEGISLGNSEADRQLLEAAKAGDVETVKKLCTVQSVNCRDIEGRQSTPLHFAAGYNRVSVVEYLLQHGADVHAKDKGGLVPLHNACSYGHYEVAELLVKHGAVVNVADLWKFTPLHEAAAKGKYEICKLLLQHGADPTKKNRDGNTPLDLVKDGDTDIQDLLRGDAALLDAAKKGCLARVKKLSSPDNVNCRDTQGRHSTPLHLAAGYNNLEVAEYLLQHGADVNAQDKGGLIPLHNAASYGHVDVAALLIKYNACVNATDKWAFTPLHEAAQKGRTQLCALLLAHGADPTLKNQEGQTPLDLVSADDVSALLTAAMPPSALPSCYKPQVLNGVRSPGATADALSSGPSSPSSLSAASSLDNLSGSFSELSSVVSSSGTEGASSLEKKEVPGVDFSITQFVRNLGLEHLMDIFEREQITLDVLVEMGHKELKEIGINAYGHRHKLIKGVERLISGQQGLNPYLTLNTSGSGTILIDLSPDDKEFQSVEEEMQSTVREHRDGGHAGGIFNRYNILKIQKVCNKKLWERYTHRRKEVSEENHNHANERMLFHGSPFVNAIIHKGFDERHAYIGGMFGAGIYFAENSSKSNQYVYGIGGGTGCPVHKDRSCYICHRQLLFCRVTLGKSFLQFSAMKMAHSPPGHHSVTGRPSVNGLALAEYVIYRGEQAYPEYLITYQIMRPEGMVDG
Kind of data set: In vitro Scintillation Proximity Assay (SPA) for TANK-2 inhibitory activity. It is filed as biochemical. The settings on record: in vitro SPA assay TANK-2 pIC50. As for the experimental part:
Compounds of the present invention were tested in an in vitro assay based on SPA technology with Ni Flash plates (96 or 384 well). In principle, the assay relies upon SPA technology for the detection of auto-poly(ADP-ribosyl)ation of TANK-2 protein using [^3H]-nicotinamide adenine dinucleotide ([^3H]-NAD^+) as ADP-ribosyl donor.
A stock solution of 100 nM [3H]-NAD^+/NAD (0.1 mCi/ml, supplier: Perkin Elmer) and 0.25 μM NAD (Sigma) was made in assay buffer (60 mM Tris/HCl, pH 7.4; 0.9 mM DTT; 6 mM MgCl2). The TANK-2 enzyme was produced as described in EP1238063. 60 μl of assay buffer, together with 1 μl of compound in DMSO, 20 μl of [^3H]-NAD^+/NAD and 20 μl of TANK-2 enzyme (final concentration 8 μg/ml) was added per well into a 96-well Ni-coated flash plate (Perkin Elmer). After incubation of the mixture for 120 min. at room temperature, the reaction was terminated by adding 60 μl of stopsolution (42.6 mg NAD in 6 ml H2O). The plates were covered with a plate sealer and placed in a TopCountNXT™ (Packard) for scintillation counting. Values were expressed as counts per minute (cpm). For each experiment, controls (containing TANK-2 enzyme and DMSO without compound), a blank incubation (containing DMSO but no TANK-2 enzyme or compound) and samples (containing TANK-2 enzyme and compound dissolved in DMSO) were run in parallel. All compounds tested were dissolved and eventually further diluted in DMSO. In first instance, compounds were tested at a concentration of 10^−5M. […] In each test, the blank value was subtracted from both the control and the sample values. The control sample represented maximal TANK-2 enzyme activity. For each sample, the amount of cpm was expressed as a percentage of the mean cpm value of the controls. When appropriate, IC50-values (concentration of the drug, needed to reduce the TANK-2 enzyme activity to 50% of the control) were computed using linear interpolation between the experimental points just above and below the 50% level. Herein the effects of test compounds are expressed as pIC50 (the negative log value of the IC50-value). As reference compounds, 3-aminobenzamide and 4-amino-1,8-naphtalimide were included to validate the SPA assay. Herein the assay was described using 96-well plates. In the assay using 384-well plates the same final concentrations were used and volumes were adapted.

T1 sequence (P09874 whole entry): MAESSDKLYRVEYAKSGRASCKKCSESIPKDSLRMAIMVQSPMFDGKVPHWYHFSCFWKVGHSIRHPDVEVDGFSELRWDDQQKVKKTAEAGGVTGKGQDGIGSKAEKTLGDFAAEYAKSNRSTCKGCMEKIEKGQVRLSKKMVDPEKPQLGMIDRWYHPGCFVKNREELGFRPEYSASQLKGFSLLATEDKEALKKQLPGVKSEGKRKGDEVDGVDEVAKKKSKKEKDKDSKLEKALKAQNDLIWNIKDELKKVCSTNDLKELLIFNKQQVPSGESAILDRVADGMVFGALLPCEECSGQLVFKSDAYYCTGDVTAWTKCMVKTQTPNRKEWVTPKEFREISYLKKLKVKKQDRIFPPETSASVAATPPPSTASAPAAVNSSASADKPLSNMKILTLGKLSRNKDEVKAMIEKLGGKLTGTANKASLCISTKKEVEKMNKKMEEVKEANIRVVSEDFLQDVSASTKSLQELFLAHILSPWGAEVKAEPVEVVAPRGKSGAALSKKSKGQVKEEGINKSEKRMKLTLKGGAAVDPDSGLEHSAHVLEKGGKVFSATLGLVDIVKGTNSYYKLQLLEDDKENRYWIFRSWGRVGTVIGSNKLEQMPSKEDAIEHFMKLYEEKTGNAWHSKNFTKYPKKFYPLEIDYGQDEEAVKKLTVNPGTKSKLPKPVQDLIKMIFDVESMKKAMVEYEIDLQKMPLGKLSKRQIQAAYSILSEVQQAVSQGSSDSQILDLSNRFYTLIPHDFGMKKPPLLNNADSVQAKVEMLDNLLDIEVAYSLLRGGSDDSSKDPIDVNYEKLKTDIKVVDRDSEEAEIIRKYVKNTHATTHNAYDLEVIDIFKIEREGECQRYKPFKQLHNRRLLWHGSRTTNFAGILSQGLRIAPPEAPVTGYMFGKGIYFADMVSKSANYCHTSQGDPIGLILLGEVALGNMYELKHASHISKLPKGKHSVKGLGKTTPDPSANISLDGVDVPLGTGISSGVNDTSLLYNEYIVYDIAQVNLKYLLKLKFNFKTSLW

In turn, `CCc1cc2ccc(C(C)(C#N)Cc3nc(C#N)cc(OC)n3)cc2[nH]c1=O` (single isomer, unassigned) [Compound 203] returned a melting point of 179 °C. Besides, the IC50 at Human PARP-1 enzyme is 50.1 nM. At TANK-2 enzyme, the IC50 is 79.4 nM.
